The results in this text go back to US9067881B2, “4-tolyl-ethynyl-octahydro-indole-1-ester derivatives” (NOVARTIS AG, priority 2011, dated 2015).

As a reminder, the microsomal CLint is the capacity of the preparation to metabolise the compound, expressed as a volume cleared per time. A higher microsomal CLint goes with faster metabolism. The solubility is the concentration that dissolves in the medium under given conditions. The IC50 is the concentration at which inhibition is half-maximal.

≈ marks a conversion by molar mass, not a printed value. Where only a bound is given, the exact number is not on record here.

The nature of data set [1]: In-vitro clearance in rat liver microsomes (metabolic stability, compound depletion). (In general: Microsomes from liver hold many membrane-bound enzymes, among them those of drug oxidation.)
Data set [2] can be described thus: Solubility in Cl free phosphate buffer pH 6.8. The settings on record: aqueous buffer; Cl free phosphate buffer (0.067 M) pH 6.8. The data set is classed as physicochemical.
The nature of data set [3]: In-vitro clearance in human liver microsomes (metabolic stability, compound depletion).
The target in a further data set is T1, human mGluR5 (Homo sapiens, UniProt P41594).
T1 construct: expressed in transfected cells
T1 sequence (P41594 21-1180 isoform P41594-2 limits assumed): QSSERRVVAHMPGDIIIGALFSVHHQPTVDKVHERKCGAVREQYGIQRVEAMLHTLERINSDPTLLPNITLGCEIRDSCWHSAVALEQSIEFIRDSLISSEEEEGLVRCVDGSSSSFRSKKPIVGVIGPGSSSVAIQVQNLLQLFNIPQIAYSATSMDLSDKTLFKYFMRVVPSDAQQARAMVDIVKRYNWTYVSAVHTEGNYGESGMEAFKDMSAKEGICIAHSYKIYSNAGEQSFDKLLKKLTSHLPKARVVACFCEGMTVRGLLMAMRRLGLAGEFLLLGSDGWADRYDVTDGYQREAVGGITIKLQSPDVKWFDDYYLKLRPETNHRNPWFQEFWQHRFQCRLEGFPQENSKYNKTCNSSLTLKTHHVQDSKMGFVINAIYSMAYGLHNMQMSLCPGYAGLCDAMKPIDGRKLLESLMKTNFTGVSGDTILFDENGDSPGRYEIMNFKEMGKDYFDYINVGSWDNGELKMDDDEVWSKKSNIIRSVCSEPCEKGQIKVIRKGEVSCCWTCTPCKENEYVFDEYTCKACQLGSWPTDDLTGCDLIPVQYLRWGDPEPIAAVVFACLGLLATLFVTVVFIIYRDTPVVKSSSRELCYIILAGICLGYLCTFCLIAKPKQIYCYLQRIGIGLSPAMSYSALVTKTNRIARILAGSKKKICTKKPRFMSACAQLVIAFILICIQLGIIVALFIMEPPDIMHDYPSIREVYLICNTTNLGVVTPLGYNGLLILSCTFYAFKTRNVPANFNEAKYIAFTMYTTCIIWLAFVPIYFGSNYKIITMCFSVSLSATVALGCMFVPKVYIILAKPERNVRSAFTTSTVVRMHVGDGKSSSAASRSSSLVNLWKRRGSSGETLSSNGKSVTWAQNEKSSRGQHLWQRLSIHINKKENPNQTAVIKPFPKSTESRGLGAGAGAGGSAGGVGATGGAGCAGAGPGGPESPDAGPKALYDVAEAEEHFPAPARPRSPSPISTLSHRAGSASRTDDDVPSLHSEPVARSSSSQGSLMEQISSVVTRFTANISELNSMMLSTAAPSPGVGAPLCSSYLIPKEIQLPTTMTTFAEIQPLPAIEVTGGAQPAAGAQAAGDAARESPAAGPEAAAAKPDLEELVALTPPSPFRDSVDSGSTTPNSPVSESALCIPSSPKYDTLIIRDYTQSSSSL
The data set can be described thus: In-vitro activity of mGluR5 antagonists (inhibition of agonist induced elevation of intracellular Ca2+ or inositol phosphate turnover at recombinant human mGluR5). The data set is classed as cell-based. The settings on record: recombinant human mGluR5, antagonism.

Consider `CCCCCCCCCCCC(=O)O[C@@]1(C#Cc2cccc(C)c2)CCC[C@@H]2[C@H]1CCN2C(=O)OC` [Example 19, (3aR,4S,7aR)-4-Dodecanoyloxy-4-m-tolylethynyl-octahydro-indole-1-carboxylic acid methyl ester], for which the microsomal CLint at 1 μM in data set [1] is 32 µL/min/mg. For the same molecule, the solubility in data set [2] was under 2 µg/mL.
For `COC(=O)N1CC[C@@H]2[C@H]1CCC[C@@]2(O)C#Cc1cccc(C)c1` [Example 1.0, 4-hydroxy-4-m-tolylethynyl-octahydro-indole-1-carboxylic acid methyl ester, reference compound], the microsomal CLint at 1 μM in data set [1] turned out to be 277 µL/min/mg; in data set [3], 113 µL/min/mg. Also, the solubility in data set [2] stood at 51 µg/mL (≈ 163 µM).
For `CCCCCCCCCCCCCC(=O)O[C@@]1(C#Cc2cccc(C)c2)CCC[C@@H]2[C@H]1CCN2C(=O)OC` [Example 16, (3aR,4S,7aR)-4-Tetradecanoyloxy-4-m-tolylethynyl-octahydro-indole-1-carboxylic acid methyl ester] the same measures were 26 µL/min/mg, 33 µL/min/mg and under 2 µg/mL.
The corresponding values for `COC(=O)N1CC[C@@H]2[C@H]1CCC[C@]2(C#Cc1cccc(C)c1)OC(=O)CN1CCOCC1` [Example 26, (3aR,4S,7aR)-4-(2-Morpholin-4-yl-acetoxy)-4-m-tolylethynyl-octahydro-indole-1-carboxylic acid methyl ester] are 533 µL/min/mg, 770 µL/min/mg and 138 µg/mL (≈ 313 µM).
In the case of `COC(=O)N1CC[C@@H]2[C@H]1CCC[C@]2(C#Cc1cccc(C)c1)OC(=O)CCN` [Example 40, (3aR,4S,7aR)-methyl 4-(3-aminopropanoyloxy)-4-(m-tolylethynyl)octahydro-1H-indole-1-carboxylate], the microsomal CLint at 1 μM in data set [1] was determined as 302 µL/min/mg; in data set [3] it was 36 µL/min/mg.
For the molecule `CCC(=O)O[C@@]1(C#Cc2cccc(C)c2)CCC[C@@H]2[C@H]1CCN2C(=O)OC` [Example 14, (3aR,4S,7aR)-4-Propionyloxy-4-m-tolylethynyl-octahydro-indole-1-carboxylic acid methyl ester], the microsomal CLint at 1 μM in data set [1] was 3.4 µL/min/mg. In data set [2], the solubility is 9 µg/mL (≈ 24.4 µM).
For the molecule `COC(=O)N1CC[C@@H]2[C@H]1CCC[C@]2(C#Cc1cccc(C)c1)OC(=O)CCN1CCCC1` [Example 29, (3aR,4S,7aR)-4-(3-Pyrrolidin-1-yl-propionyloxy)-4-m-tolylethynyl-octahydro-indole-1-carboxylic acid methyl ester], the microsomal CLint at 1 μM in data set [1] is 730 µL/min/mg; in data set [3] it was 660 µL/min/mg. Further, the solubility in data set [2] turned out to be 439 µg/mL (≈ 1000 µM).
In the case of `COC(=O)N1CC[C@@H]2[C@H]1CCC[C@]2(C#Cc1cccc(C)c1)OC(=O)CCCN(C)C` [Example 3, (3aR,4S,7aR)-4-(4-Dimethylamino-butyryloxy)-4-m-tolylethynyl-octahydro-indole-1-carboxylic acid methyl ester], the values for the intrinsic metabolic clearance (microsomal CLint) at 1 μM in data set [1] and in data set [3] were 730 µL/min/mg and 283 µL/min/mg, respectively.
In turn, `CCCN(CCC)C(=O)CCC(=O)O[C@@]1(C#Cc2cccc(C)c2)CCC[C@@H]2[C@H]1CCN2C(=O)OC` [Example 63, (3aR,4S,7aR)-methyl 4-(4-(dipropylamino)-4-oxobutanoyloxy)-4-(m-tolylethynyl)octahydro-1H-indole-1-carboxylate] yielded a microsomal CLint at 1 μM in data set [1] of 26 µL/min/mg. The same molecule returned a solubility in data set [2] of 43 µg/mL (≈ 86.6 µM).
For `COC(=O)N1CC[C@@H]2[C@H]1CCC[C@]2(C#Cc1cccc(C)c1)OC(=O)c1ccccn1` [Example 54, (3aR,4S,7aR)-4-(Pyridine-2-carbonyloxy)-4-m-tolylethynyl-octahydro-indole-1-carboxylic acid methyl ester] the same measures were 167 µL/min/mg and 2 µg/mL (≈ 4.78 µM).
For the molecule `COC(=O)N1CC[C@@H]2[C@H]1CCC[C@]2(C#Cc1cccc(C)c1)OC(=O)[C@H](C)N` [Example 9, (3aR,4S,7aR)-4-((S)-2-Amino-propionyloxy)-4-m-tolylethynyl-octahydro-indole-1-carboxylic acid methyl ester], the figures for the microsomal CLint at 1 μM in data set [1] and in data set [3] were 355 µL/min/mg and 315 µL/min/mg, respectively.
For `CNCC(=O)O[C@@]1(C#Cc2cccc(C)c2)CCC[C@@H]2[C@H]1CCN2C(=O)OC` [Example 7, (3aR,4S,7aR)-4-(2-Methylamino-acetoxy)-4-m-tolylethynyl-octahydro-indole-1-carboxylic acid methyl ester] the same measures were 346 µL/min/mg and 433 µL/min/mg.
The corresponding values for `COC(=O)N1CC[C@@H]2[C@H]1CCC[C@]2(C#Cc1cccc(C)c1)OC(=O)CN(C)C` [Example 1, (3aR,4S,7aR)-4-(2-Dimethylamino-acetoxy)-4-m-tolylethynyl-octahydro-indole-1-carboxylic acid methyl ester] are 195 µL/min/mg and 14 µL/min/mg.
On to `COC(=O)N1CC[C@@H]2[C@H]1CCC[C@]2(C#Cc1cccc(C)c1)OC(=O)CN` [Example 8, (3aR,4S,7aR)-4-(2-Amino-acetoxy)-4-m-tolylethynyl-octahydro-indole-1-carboxylic acid methyl ester], for which the results for the microsomal CLint at 1 μM in data set [1] and in data set [3] were 87 µL/min/mg and 187 µL/min/mg, respectively. The solubility in data set [2] stood at 125 µg/mL (≈ 337 µM).
As for `COC(=O)N1CC[C@@H]2[C@H]1CCC[C@]2(C#Cc1cccc(C)c1)OC(=O)c1c(C)cc(C)cc1C` [Example 53, (3aR,4S,7aR)-methyl 4-(m-tolylethynyl)-4-(2,4,6-trimethylbenzoyloxy)octahydro-1H-indole-1-carboxylate], the microsomal CLint at 1 μM in data set [1] came to 3.4 µL/min/mg.
In the case of `COC(=O)N1CC[C@@H]2[C@H]1CCC[C@]2(C#Cc1cccc(C)c1)OC(=O)c1ccncc1` [Example 45, (3aR,4S,7aR)-methyl 4-(isonicotinoyloxy)-4-(m-tolylethynyl)octahydro-1H-indole-1-carboxylate], the intrinsic metabolic clearance (microsomal CLint) at 1 μM in data set [1] turned out to be 385 µL/min/mg. In data set [2], the solubility was under 2 µg/mL.
The corresponding values for `COC(=O)N1CC[C@@H]2[C@H]1CCC[C@]2(C#Cc1cccc(C)c1)OC(=O)c1cccnc1` [Example 51, (3aR,4S,7aR)-methyl 4-(nicotinoyloxy)-4-(m-tolylethynyl)octahydro-1H-indole-1-carboxylate] are 478 µL/min/mg and under 2 µg/mL.
On to `CCCCCCCCC(=O)O[C@@]1(C#Cc2cccc(C)c2)CCC[C@@H]2[C@H]1CCN2C(=O)OC` [Example 24, (3aR,4S,7aR)-4-Nonanoyloxy-4-m-tolylethynyl-octahydro-indole-1-carboxylic acid methyl ester], for which, in data set [1], the microsomal CLint at 1 μM was determined as 32 µL/min/mg. Further, the solubility in data set [2] is under 2 µg/mL.
Consider `COC(=O)N1CC[C@@H]2[C@H]1CCC[C@]2(C#Cc1cccc(C)c1)OC(=O)[C@@H](N)CC(C)(C)C` [Example 34, (3aR,4S,7aR)-4-((S)-2-Amino-4,4-dimethyl-pentanoyloxy)-4-m-tolylethynyl-octahydro-indole-1-carboxylic acid methyl ester], for which the microsomal CLint at 1 μM in data set [1] was 495 µL/min/mg.
As for `COC(=O)N1CC[C@@H]2[C@H]1CCC[C@]2(C#Cc1cccc(C)c1)OC(=O)[C@@H](N)c1ccccc1` [Example 41, (3aR,4S,7aR)-methyl 4-((S)-2-amino-2-phenylacetoxy)-4-(m-tolylethynyl)octahydro-1H-indole-1-carboxylate], the microsomal CLint at 1 μM in data set [1] was 579 µL/min/mg; in data set [3] it was 693 µL/min/mg. This molecule also displayed a solubility in data set [2] of 3 µg/mL (≈ 6.72 µM).
In data set [1], `COC(=O)N1CC[C@@H]2[C@H]1CCC[C@]2(C#Cc1cccc(C)c1)OC(=O)c1cccc(C)c1` [Example 46, (3aR,4S,7aR)-methyl 4-(3-methylbenzoyloxy)-4-(m-tolylethynyl)octahydro-1H-indole-1-carboxylate] had a microsomal CLint at 1 μM of 4.4 µL/min/mg.
For the molecule `CCOC(=O)N1CC[C@@H]2[C@H]1CCC[C@@]2(O)C#Cc1cccc(C)c1` [Example 2.0], the IC50 on human mGluR5 was determined as 42 nM.
In turn, `CCCCCCCCCCCCC(=O)O[C@@]1(C#Cc2cccc(C)c2)CCC[C@@H]2[C@H]1CCN2C(=O)OC` [Example 25, (3aR,4S,7aR)-4-m-Tolylethynyl-4-tridecanoyloxy-octahydro-indole-1-carboxylic acid methyl ester] displayed a microsomal CLint at 1 μM in data set [1] of 32 µL/min/mg. In data set [2], this molecule came in with a solubility of under 2 µg/mL.
`CC[C@H](C)[C@H](NC)C(=O)O[C@@]1(C#Cc2cccc(C)c2)CCC[C@@H]2[C@H]1CCN2C(=O)OC` [Example 37, (3aR,4S,7aR)-4-((2S,3S)-3-Methyl-2-methylamino-pentanoyloxy)-4-m-tolylethynyl-octahydro-indole-1-carboxylic acid methyl ester]: in data set [1], the microsomal CLint at 1 μM worked out at 693 µL/min/mg.
Take `COC(=O)N1CC[C@@H]2[C@H]1CCC[C@]2(C#Cc1cccc(C)c1)OC(=O)CCN1CCOCC1` [Example 27, (3aR,4S,7aR)-4-(3-Morpholin-4-yl-propionyloxy)-4-m-tolylethynyl-octahydro-indole-1-carboxylic acid methyl ester]: the microsomal CLint at 1 μM in data set [1] stood at 533 µL/min/mg; in data set [3], 94 µL/min/mg. Further, in data set [2], the solubility stood at 108 µg/mL (≈ 238 µM).
`CCCCCCC(=O)O[C@@]1(C#Cc2cccc(C)c2)CCC[C@@H]2[C@H]1CCN2C(=O)OC` [Example 23, (3aR,4S,7aR)-4-Heptanoyloxy-4-m-tolylethynyl-octahydro-indole-1-carboxylic acid methyl ester] showed a microsomal CLint at 1 μM in data set [1] of 3.4 µL/min/mg. The molecule further displayed a solubility in data set [2] of under 2 µg/mL.
For `CCCCCCCCCC(=O)O[C@@]1(C#Cc2cccc(C)c2)CCC[C@@H]2[C@H]1CCN2C(=O)OC` [Example 20, (3aR,4S,7aR)-4-Decanoyloxy-4-m-tolylethynyl-octahydro-indole-1-carboxylic acid methyl ester] the same measures were 5.4 µL/min/mg and under 2 µg/mL.
